Consider 14 molecules from patent US10016439B2, “Fused imidazole compounds” (ONO PHARMACEUTICAL CO., LTD., priority 2014, dated 2018).

In data set [1] the target is T1, GABAA α5/β3/γ2 (Homo sapiens (Human), UniProt P18507+P31644). The data set is described as follows: Binding assay (Scintillation Proximity Assay, [3H]-Ro15-1788). The note with it: membranes of HEK293 cells expressing GABAA α5/β3/γ2. The procedure: The GABAAα5/β3/γ2 protein used for the Scintillation Proximity Assay was derived from membranes produced from HEK293 GABAA α5/β3/γ2 expressing HEK293 cell line. HEK293 GABAA α5/β3/γ2 expressing HEK293 cell line was cultured, then harvested and centrifuged the cells. Membranes were produced by homogenization of the cell pellet with a tissue homogenizer. The resulting homogenate was centrifuged at 48,000 g for 30 minutes, re-suspended and washed twice with 10 mM potassium phosphate buffer, pH 7.4. Final resuspension of membranes took place in buffer containing 10 mM potassium phosphate and 100 mM KCl.
For assay, test compound (50×) was added 0.5 μl per well to a white-walled clear-bottomed 384-well plate.
Full signal controls were prepared by the addition of 0.5 μl of DMSO to the appropriate wells. Mixture of 10 μl of protein and 10 μl of PVT-WGA beads (0.2 mg/well) were added to the plate. Both protein and bead were diluted to the desired concentration with 10 mM potassium phosphate, pH 7.4, containing 100 mM KCl. The plate was pre-incubated for 30 minutes at room temperature with shaking before initiation of the reaction by the addition of radioligand. 5 μl of [^3H]-Ro15-1788 was added at a concentration of 30 nM (5×) and the plates sealed. The reaction mix was incubated at room temperature overnight with gentle agitation on a plate shaker. The final DMSO concentration for all phases of the screening was 2% (v/v). At the end of the overnight incubation, the plates were centrifuged for two minutes at 1,000 rpm prior to reading on a Perkin Elmer Microbeta.
Concentration-response testing was performed in duplicate and the percent effect calculated for each replicate data point. The raw data was entered in Activity Base and the curves were fitted to the mean data using Excel and XL Fit, and shown as Ki.
(SPA uses beads or plates that emit light when radiolabelled molecules are held near them.)

In data set [2] the target is T1, GABAA α5/β3/γ2. The data set is described as follows: Functional assay (PatchXpress automated patch-clamp), α5 subtype. In kind it is cell-based. The note with it: % change of GABA EC20 response; compound 1 μM; HEK293 cells. The source says:
(§1) GABAA α5/β3/γ2 HEK293 cell line was used throughout the functional assay in PatchXpress (Molecular Devices), the automated patch-clamp system. Cells stably expressing the appropriate GABAA subtype (α5/β3/γ2, α1/β3/γ2, α2/β3/γ2 or α3/β3/γ2) were dissociated from poly-D-lysine treated tissue culture flasks using a mixture of one part TrypLE (Invitrogen, cat #12604): one part Dulbecco's Phosphate Buffered Saline (Invitrogen, cat #14190). The dissociated cells were re-suspended in growth media (D-MEM/F-12 media (Invitrogen, cat #11320) supplemented with 10% (v/v) Foetal Bovine Serum (Invitrogen, cat #10082) and 1% (v/v) non-essential amino acids (Invitrogen, cat #11140)) and allowed to recover for one hour at 37° C. in a humidified incubator with 5% CO2. At the end of the recovery period cells were centrifuged at 1,000 rpm for two minutes and the resulting pellet re-suspended in external solution (in mM; 137 NaCl, 4 KCl, 10 HEPES, 1.8 CaCl2, 1 MgCl2, 10 glucose, pH set to 7.35 with NaOH). Cells were counted and diluted to 2.5×10^6/ml in external solution. The patch-clamp assay protocol involved determination of current amplitude with control applications of GABA EC20 containing concentration-matched DMSO (0.3% v/v), then pre-incubation of the test compound for one minute prior to the addition of the same compound diluted with the GABA EC20. Compound and/or GABA was applied for five seconds, with two minute wash periods between applications. No wash period was present at the end of the compound pre-application stage. The internal solution comprised (in mM) 90 KCl, 50 KF, 11 EGTA, 10 HEPES, 1 MgCl2, 2 Mg-ATP, the pH was set to 7.35 with KOH and the holding potential was −60 mV. Compounds were assayed at a concentration of 1 μM.
A general note: The patch-clamp technique gives a direct electrical read-out from membranes.

The next data set concerns the target GABAA α1/β3/γ2 (Homo sapiens (Human), UniProt P14867+P18507). The data set is described as follows: Functional assay (PatchXpress automated patch-clamp), α1 subtype. In kind it is cell-based. The note with it: % change of GABA EC20 response; compound 1 μM; HEK293 cells.
Text: as §1

The nature of data set [3]: Cryopreserved hepatocyte stability. In kind it is in vitro ADME. The note with it: human hepatocytes 0.5 million cells/mL, 1 μM, 37° C.; compound remaining; time point not stated. The procedure:
Hepatocyte stability assays were performed using pooled human cryopreserved hepatocytes. Test and control compounds (testosterone, midazolam, 4-methylumbelliferone), prepared in DMSO, were incubated at an initial concentration of 1 μM (0.25% DMSO final, n=2) with hepatocytes at cell densities of 0.5 million cells/mL for both species at 37° C. Aliquots were removed at 0, 10, 20, 45 and 90 minutes for termination of reactions and compound extraction with acetonitrile containing an analytical internal standard. Samples were centrifuged and the supernatant fractions analysed for parent compound by mass spectrometry (LC-MS/MS).
(§2) The amount of compound remaining (expressed as %) was determined from the MS response in each sample relative to that in the T=0 samples (normalised for internal standard).
Ln plots of the % remaining were used to determine the half-life for compound disappearance using the relationship: t½(min)=−0.693/λ where λ is the slope of the Ln % remaining vs time curve. Hepatic Microsomal Stability: Half-life/Intrinsic Clearance Format

Data set [4] is described as follows: Hepatic microsomal stability. To be noted: human microsomes 0.5 mg protein/mL, NADPH, 1 μM, 37° C.; compound remaining; time point not stated. In kind it is in vitro ADME. The procedure: Microsomal stability assays were performed using pooled hepatic microsomes from human. Test and control compounds (propranolol or dextromethorphan, midazolam), prepared in DMSO, were incubated at an initial concentration of 1 μM (0.25% DMSO final, n=2) with microsomes (0.5 mg protein/mL) at 37° C. in the presence of the cofactor, NADPH (1 mM). Aliquots were removed at 0, 5, 10, 20 and 40 minutes for termination of reactions and compound extraction with acetonitrile containing an analytical internal standard. Samples were centrifuged and the supernatant fractions analysed for parent compound by mass spectrometry (LC-MS/MS).
as §2
Ln plots of the % remaining were used to determine the half-life for compound disappearance using the relationship: t½(min)=−0.693/λ where λ is the slope of the Ln % remaining vs time curve.

The structures appear in SMILES notation.

GABAA α1/β3/γ2, sequence (P14867 28-456): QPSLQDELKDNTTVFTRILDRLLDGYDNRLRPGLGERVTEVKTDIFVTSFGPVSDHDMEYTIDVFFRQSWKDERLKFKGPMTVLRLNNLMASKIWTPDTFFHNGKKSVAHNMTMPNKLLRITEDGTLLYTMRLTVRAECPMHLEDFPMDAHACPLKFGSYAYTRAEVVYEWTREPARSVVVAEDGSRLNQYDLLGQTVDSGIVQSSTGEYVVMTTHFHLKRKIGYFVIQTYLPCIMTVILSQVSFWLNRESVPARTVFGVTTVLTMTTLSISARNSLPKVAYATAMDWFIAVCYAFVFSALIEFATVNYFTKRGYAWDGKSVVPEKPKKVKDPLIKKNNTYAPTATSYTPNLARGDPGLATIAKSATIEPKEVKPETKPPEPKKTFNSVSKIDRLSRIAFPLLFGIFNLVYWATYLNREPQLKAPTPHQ
GABAA α1/β3/γ2, sequence (P28472 26-473 partner): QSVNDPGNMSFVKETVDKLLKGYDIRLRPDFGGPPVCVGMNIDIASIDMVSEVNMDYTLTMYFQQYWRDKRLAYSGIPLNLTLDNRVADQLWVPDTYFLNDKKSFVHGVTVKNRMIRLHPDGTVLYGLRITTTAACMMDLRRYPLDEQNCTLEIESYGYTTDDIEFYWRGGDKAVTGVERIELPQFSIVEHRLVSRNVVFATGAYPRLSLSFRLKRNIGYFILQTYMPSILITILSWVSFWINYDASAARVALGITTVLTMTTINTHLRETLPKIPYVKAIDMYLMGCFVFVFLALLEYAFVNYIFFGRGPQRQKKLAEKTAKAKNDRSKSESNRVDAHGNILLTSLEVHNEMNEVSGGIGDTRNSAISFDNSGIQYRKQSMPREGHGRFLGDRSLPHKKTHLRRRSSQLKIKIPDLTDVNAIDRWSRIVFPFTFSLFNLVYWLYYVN
GABAA α1/β3/γ2, sequence (P18507 40-475): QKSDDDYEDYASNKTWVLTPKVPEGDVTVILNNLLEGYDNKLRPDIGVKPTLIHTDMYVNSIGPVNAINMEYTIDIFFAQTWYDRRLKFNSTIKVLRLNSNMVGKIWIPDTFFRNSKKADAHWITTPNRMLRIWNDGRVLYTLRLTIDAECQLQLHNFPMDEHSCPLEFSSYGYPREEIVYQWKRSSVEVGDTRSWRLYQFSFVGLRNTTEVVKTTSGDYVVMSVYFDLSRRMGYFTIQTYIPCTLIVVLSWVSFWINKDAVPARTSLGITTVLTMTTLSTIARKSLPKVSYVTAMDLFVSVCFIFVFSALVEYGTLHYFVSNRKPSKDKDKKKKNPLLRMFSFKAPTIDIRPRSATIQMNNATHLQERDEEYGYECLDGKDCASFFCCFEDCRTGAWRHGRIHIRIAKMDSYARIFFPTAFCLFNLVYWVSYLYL
T1 sequence (P31644 32-462): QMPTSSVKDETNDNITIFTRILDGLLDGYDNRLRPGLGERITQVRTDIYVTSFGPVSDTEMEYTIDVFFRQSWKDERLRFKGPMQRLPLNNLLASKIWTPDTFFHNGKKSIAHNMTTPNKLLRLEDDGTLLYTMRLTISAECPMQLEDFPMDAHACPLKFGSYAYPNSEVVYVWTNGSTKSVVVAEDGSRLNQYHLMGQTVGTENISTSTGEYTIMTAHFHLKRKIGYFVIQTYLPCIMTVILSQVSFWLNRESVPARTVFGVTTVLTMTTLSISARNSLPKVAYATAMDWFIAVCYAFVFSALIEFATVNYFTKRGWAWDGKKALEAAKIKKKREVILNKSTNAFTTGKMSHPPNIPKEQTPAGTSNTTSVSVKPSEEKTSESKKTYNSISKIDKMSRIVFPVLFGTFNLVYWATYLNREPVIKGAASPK
T1 sequence (P28472 26-473 partner): as the sequence (P28472 26-473 partner) above
T1 sequence (P18507 40-475): as the sequence (P18507 40-475) above

Regarding `O=C1COc2cc(Nc3cc4c(cn3)ncn4CC3CC3)ccc2N1C1CC1` [Example 37, 4-Cyclopropyl-7-((1-(cyclopropylmethyl)-1H-imidazo[4,5-c]pyridin-6-yl)amino)-2H-benzo[b][1,4]oxazin-3(4H)-one], at GABAA α5/β3/γ2 [1], the Ki worked out at 38.8 nM. In addition, the inhibition at 1 µM at GABAA α5/β3/γ2 [2] was 46%; against GABAA α1/β3/γ2, -5%.
The corresponding values for `CN1C(=O)COc2cc(Nc3cnc4ncn(CC5CC5)c4n3)ccc21` [Example 42, 7-((1-(Cyclopropylmethyl)-1H-imidazo[4,5-b]pyrazin-6-yl)amino)-4-methyl-2H-benzo[b][1,4]oxazin-3(4H)-one] are 24 nM, 55.9% and 0.2%.
The corresponding values for `Cn1c(=O)oc2cc(Nc3cnc4ncn(CC5CC5)c4n3)ccc21` [Example 43, 6-((1-(Cyclopropylmethyl)-1H-imidazo[4,5-b]pyrazin-6-yl)amino)-3-methylbenzo[d]oxazol-2(3H)-one] are 42 nM, 55.1% and 8%.
For `COCCN1C(=O)COc2cc(Nc3ncc4ncn(CC5CC5)c4n3)ccc21` [Example 46, 7-((9-(Cyclopropylmethyl)-9H-purin-2-yl)amino)-4-(2-methoxyethyl)-2H-benzo[b][1,4]oxazin-3(4H)-one], in that order: 38 nM, 42.4% and -0.9%.
In the case of `CN1C(=O)COc2cc(Nc3cc4c(cc3F)ncn4CC3CC(F)(F)C3)cnc21` [Example 52, 7-((1-((3,3-Difluorocyclobutyl)methyl)-5-fluoro-1H-benzo[d]imidazol-6-yl)amino)-4-methyl-2H-pyrido[3,2-b][1,4]oxazin-3(4H)-one], at GABAA α5/β3/γ2 [1], the affinity, expressed as Ki, was 6.7 nM. Further, the results for the inhibition at 1 µM at GABAA α5/β3/γ2 [2] and at GABAA α1/β3/γ2 were 41.8% and 7.5%, respectively.
The corresponding values for `CN1C(=O)COc2cc(Nc3cc4c(cc3F)ncn4CCC3CC3)cnc21` [Example 67, 7-((1-(2-Cyclopropylethyl)-5-fluoro-1H-benzo[d]imidazol-6-yl)amino)-4-methyl-2H-pyrido[3,2-b][1,4]oxazin-3(4H)-one] are 4.1 nM, 52.5% and -0.5%.
Turning to `Cc1c(F)c(Nc2cc3c(cn2)N(C)C(=O)CO3)cc2c1ncn2CC1CC1` [Example 87, 7-((1-(Cyclopropylmethyl)-5-fluoro-4-methyl-1H-benzo[d]imidazol-6-yl)amino)-4-methyl-2H-pyrido[4,3-b][1,4]oxazin-3(4H)-one], the “hepatocyte stability (%)” value in data set [3] came to 103%. For the same molecule, the “microsomal stability (%)” value in data set [4] was 76%.
Turning to `Cc1c(F)c(Nc2ccc(-n3ccnc3)nc2)cc2c1ncn2CC1CC1` [Example 88, N-(6-(1H-Imidazol-1-yl)pyridin-3-yl)-1-(cyclopropylmethyl)-5-fluoro-4-methyl-1H-benzo[d]imidazol-6-amine], in data set [3], the “hepatocyte stability (%)” value is recorded as 81%. For the same molecule, in data set [4], the “microsomal stability (%)” value is listed as 95%.
For `Fc1cc(Nc2cc3c(ncn3CC3CC3)c(F)c2F)ccc1-n1ccnc1` [Example 95, 1-(Cyclopropylmethyl)-4,5-difluoro-N-(3-fluoro-4-(1H-imidazol-1-yl)phenyl)-1H-benzo[d]imidazol-6-amine], in that order: 96% and 89%.
As for `CN1C(=O)COc2ncc(Nc3ccc4ncn(CC5CC5)c4n3)cc21` [Example 111, 7-((3-(Cyclopropylmethyl)-3H-imidazo[4,5-b]pyridin-5-yl)amino)-1-methyl-1H-pyrido[2,3-b][1,4]oxazin-2(3H)-one], the Ki on GABAA α5/β3/γ2 [1] was 34.6 nM. In addition, the inhibition at 1 µM against GABAA α5/β3/γ2 [2] was 44.4%; against GABAA α1/β3/γ2 it was -0.3%.
In the case of `Cc1nc(Nc2cnc3c(c2)OCC(=O)N3C)cc2c1ncn2CC1CC1` [Example 120, 7-((1-(Cyclopropylmethyl)-4-methyl-1H-imidazo[4,5-c]pyridin-6-yl)amino)-4-methyl-2H-pyrido[3,2-b][1,4]oxazin-3(4H)-one], the “hepatocyte stability (%)” value in data set [3] was 85%. For the same molecule, the “microsomal stability (%)” value in data set [4] was 94%.
For `Cc1nc(Nc2ccc3c(n2)OCC(=O)N3C)cc2c1ncn2CC1CC1` [Example 124, 6-((1-(Cyclopropylmethyl)-4-methyl-1H-imidazo[4,5-c]pyridin-6-yl)amino)-1-methyl-1H-pyrido[2,3-b][1,4]oxazin-2(3H)-one], in that order: 75% and 72%.
For `CN1C(=O)COc2nc(Nc3cc(C(F)(F)F)c4ncn(CC5CC5)c4n3)ccc21` [Example 151, 6-((3-(Cyclopropylmethyl)-7-(trifluoromethyl)-3H-imidazo[4,5-b]pyridin-5-yl)amino)-1-methyl-1H-pyrido[2,3-b][1,4]oxazin-2(3H)-one], in that order: 101% and 77%.
Molecule `Cc1cc(Nc2ccc3c(n2)OCC(=O)N3C)nc2c1ncn2CC1CC1` [Example 159, 6-((3-(Cyclopropylmethyl)-7-methyl-3H-imidazo[4,5-b]pyridin-5-yl)amino)-1-methyl-1H-pyrido[2,3-b][1,4]oxazin-2(3H)-one] had a Ki at GABAA α5/β3/γ2 [1] of 6.4 nM. Also, the inhibition at 1 µM turned out to be 46.7% on GABAA α5/β3/γ2 [2] and 4.8% on GABAA α1/β3/γ2.

What is called Ki is the dissociation constant of the complex between target and ligand, obtained from inhibition or displacement. One may read the inhibition as the change of the read-out against control, counted positive when it falls.
